Patent CN114767685A, “四氢叶酸在抑菌或者预防或治疗眼部疾病中的用途” (Peking University Third Hospital Peking University Third …, priority 2022, dated 2022)

Experiments:
Fusarium (镰刀菌) [1] = test: Inhibition of Fusarium colony growth on solid medium with proline as sole nitrogen source (pro- medium); type: cell-based, Fusarium (CGMCC3.5840); details: 29℃, 72 h, Figure 2
Fusarium (镰刀菌) [2] = test: Inhibition of Fusarium on solid media with mixed amino acids as nitrogen source (simulated cornea); type: cell-based; details: THFA 10 mM, cultured as Example 1
Fusarium (镰刀菌) [3] = test: Fusarium growth curve (OD) in liquid amino acid media, 96-well plate; type: cell-based; details: THFA 10 mM, each amino acid group, 29℃, 72 h, Figure 5B-F

## Nc1nc2c(c(=O)[nH]1)N[C@H](CNc1ccc(C(=O)N[C@@H](CCC(=O)O)C(=O)O)cc1)CN2 [THFA, 5,6,7,8-四氢叶酸]
Fusarium (镰刀菌) [1]; THFA 0-20 mM
  correlation of degree of inhibition with THFA concentration: 抑制程度与THFA浓度具有相关性
Fusarium (镰刀菌) [1]; THFA 5 mM
  colony diameter: 明显小于2.5mM、1.25mM和0mM组
Fusarium (镰刀菌) [1]; THFA 10 mM
  colony diameter: 均显著小于5mM组
Fusarium (镰刀菌) [1]; THFA 20 mM
  colony diameter: 均显著小于5mM组
Fusarium (镰刀菌) [1]; THFA 1.25, 2.5, 5, 10, 20 mM vs 0 mM
  inhibition of Fusarium growth: 镰刀菌的生长受到明显抑制
Fusarium (镰刀菌) [2]; solid media with different mixed amino acid nitrogen sources (taurine, glutamine, glycine, proline), Figure 4
  inhibition of Fusarium growth: 均能够显著抑制镰刀菌生长
Fusarium (镰刀菌) [2]; solid media with different mixed amino acids, Figure 4B-D
  colony pigment: 色素明显减弱
Fusarium (镰刀菌) [3]
  Fusarium growth (absorbance, OD, growth curve): 镰刀菌生长均明显下降
